Experimental data reported in the NIST ThermoML archive (doi:10.1016/j.jct.2017.06.008).
± gives the expanded uncertainty stated by the source.

How the values were obtained:
[1] = xn = mol fraction of the nth substance listed; conditions: 100 kPa, Liquid; for speed of sound: Frequency=3 MHz, Single path-length method; for mass density: Vibrating tube method
[2] = refractive index (Na D-line) (dimensionless); xn = mol fraction of the nth substance listed; conditions: 100 kPa, Liquid, Standard Abbe refractometry

CC(=O)CC(C)C [4-methylpentan-2-one] + C1CCCCC1
Conditions | mass density, 293.15 K [kg/m3] | mass density, 303.15 K [kg/m3] | mass density, 313.15 K [kg/m3] | refractive index, 293.15 K | refractive index, 303.15 K | refractive index, 313.15 K | speed of sound, 293.15 K [m/s] | speed of sound, 303.15 K [m/s] | speed of sound, 313.15 K [m/s]
[1], x1 = 0.0978 | 778 ± 3 | 769 ± 3 | 759 ± 3 | – | – | – | 1260.7 ± 1.4 | 1212.6 ± 1.4 | 1165.6 ± 1.4
[1], x1 = 0.1984 | 780 ± 3 | 770 ± 3 | 760 ± 3 | – | – | – | 1246.9 ± 1.4 | 1200 ± 1.4 | 1154 ± 1.4
[1], x1 = 0.3014 | 781 ± 3 | 772 ± 3 | 762 ± 3 | – | – | – | 1236.2 ± 1.4 | 1190.3 ± 1.4 | 1145.3 ± 1.4
[1], x1 = 0.4007 | 783 ± 3 | 774 ± 3 | 764 ± 3 | – | – | – | 1228.8 ± 1.5 | 1183.5 ± 1.5 | 1139.2 ± 1.5
[1], x1 = 0.5023 | 786 ± 3 | 776 ± 3 | 767 ± 3 | – | – | – | 1222 ± 1.5 | 1178 ± 1.5 | 1134.6 ± 1.5
[1], x1 = 0.6028 | 788 ± 3 | 779 ± 3 | 770 ± 3 | – | – | – | 1217.4 ± 1.5 | 1174.2 ± 1.5 | 1131.6 ± 1.5
[1], x1 = 0.7038 | 791 ± 3 | 782 ± 3 | 773 ± 3 | – | – | – | 1214.2 ± 1.5 | 1171.8 ± 1.5 | 1129.9 ± 1.5
[1], x1 = 0.8062 | 794 ± 3 | 785 ± 3 | 776 ± 3 | – | – | – | 1212.1 ± 1.6 | 1170.4 ± 1.6 | 1129.2 ± 1.6
[1], x1 = 0.9004 | 797 ± 3 | 788 ± 3 | 779 ± 3 | – | – | – | 1211.3 ± 1.6 | 1170.2 ± 1.6 | 1129.6 ± 1.6
[1], x1 = 1 | 801 ± 3 | 792 ± 3 | 782 ± 3 | – | – | – | 1212.3 ± 1.6 | 1171.4 ± 1.6 | 1131.4 ± 1.6
[2], x1 = 0.0978 | – | – | – | 1.421 ± 0.005 | 1.416 ± 0.005 | 1.411 ± 0.005 | – | – | –
[2], x1 = 0.1984 | – | – | – | 1.417 ± 0.005 | 1.412 ± 0.005 | 1.406 ± 0.005 | – | – | –
[2], x1 = 0.3014 | – | – | – | 1.413 ± 0.005 | 1.408 ± 0.005 | 1.403 ± 0.005 | – | – | –
[2], x1 = 0.4007 | – | – | – | 1.41 ± 0.005 | 1.405 ± 0.005 | 1.4 ± 0.005 | – | – | –
[2], x1 = 0.5023 | – | – | – | 1.407 ± 0.005 | 1.402 ± 0.005 | 1.397 ± 0.005 | – | – | –
[2], x1 = 0.6028 | – | – | – | 1.404 ± 0.005 | 1.399 ± 0.005 | 1.394 ± 0.005 | – | – | –
[2], x1 = 0.7038 | – | – | – | 1.402 ± 0.005 | 1.397 ± 0.005 | 1.392 ± 0.005 | – | – | –
[2], x1 = 0.8062 | – | – | – | 1.399 ± 0.005 | 1.395 ± 0.005 | 1.39 ± 0.005 | – | – | –
[2], x1 = 0.9004 | – | – | – | 1.398 ± 0.005 | 1.393 ± 0.005 | 1.388 ± 0.005 | – | – | –
[2], x1 = 1 | – | – | – | 1.396 ± 0.005 | 1.391 ± 0.005 | 1.387 ± 0.005 | – | – | –

CC(=O)CC(C)C [4-methylpentan-2-one] + CC#N
Conditions | mass density, 293.15 K [kg/m3] | mass density, 303.15 K [kg/m3] | mass density, 313.15 K [kg/m3] | refractive index, 293.15 K | refractive index, 303.15 K | refractive index, 313.15 K | speed of sound, 293.15 K [m/s] | speed of sound, 303.15 K [m/s] | speed of sound, 313.15 K [m/s]
[1], x1 = 0.102 | 786 ± 3 | 776 ± 3 | 765 ± 3 | – | – | – | 1280.4 ± 1.3 | 1239.9 ± 1.3 | 1199.1 ± 1.3
[1], x1 = 0.1961 | 790 ± 3 | 779 ± 3 | 769 ± 3 | – | – | – | 1267.6 ± 1.3 | 1226.3 ± 1.3 | 1185.4 ± 1.3
[1], x1 = 0.3082 | 792 ± 3 | 782 ± 3 | 772 ± 3 | – | – | – | 1255.2 ± 1.3 | 1213.5 ± 1.3 | 1172.5 ± 1.3
[1], x1 = 0.4019 | 794 ± 3 | 784 ± 3 | 774 ± 3 | – | – | – | 1245.9 ± 1.4 | 1204.6 ± 1.4 | 1163.8 ± 1.4
[1], x1 = 0.5188 | 796 ± 3 | 787 ± 3 | 777 ± 3 | – | – | – | 1237.4 ± 1.4 | 1195.8 ± 1.4 | 1155 ± 1.4
[1], x1 = 0.6001 | 797 ± 3 | 788 ± 3 | 778 ± 3 | – | – | – | 1231.4 ± 1.4 | 1190.3 ± 1.4 | 1149.7 ± 1.4
[1], x1 = 0.7014 | 798 ± 3 | 789 ± 3 | 779 ± 3 | – | – | – | 1225.4 ± 1.5 | 1184.5 ± 1.5 | 1144 ± 1.5
[1], x1 = 0.8008 | 799 ± 3 | 790 ± 3 | 780 ± 3 | – | – | – | 1220.8 ± 1.5 | 1179.6 ± 1.5 | 1139.3 ± 1.5
[1], x1 = 0.8801 | 800 ± 3 | 791 ± 3 | 781 ± 3 | – | – | – | 1216.6 ± 1.6 | 1175.9 ± 1.6 | 1135.7 ± 1.6
[1], x1 = 1 | 801 ± 3 | 792 ± 3 | 782 ± 3 | – | – | – | 1212.3 ± 1.6 | 1171.4 ± 1.6 | 1131.4 ± 1.6
[2], x1 = 0.102 | – | – | – | 1.355 ± 0.005 | 1.35 ± 0.005 | 1.345 ± 0.005 | – | – | –
[2], x1 = 0.1961 | – | – | – | 1.363 ± 0.005 | 1.358 ± 0.005 | 1.353 ± 0.005 | – | – | –
[2], x1 = 0.3082 | – | – | – | 1.371 ± 0.005 | 1.366 ± 0.005 | 1.361 ± 0.005 | – | – | –
[2], x1 = 0.4019 | – | – | – | 1.376 ± 0.005 | 1.371 ± 0.005 | 1.367 ± 0.005 | – | – | –
[2], x1 = 0.5188 | – | – | – | 1.381 ± 0.005 | 1.377 ± 0.005 | 1.372 ± 0.005 | – | – | –
[2], x1 = 0.6001 | – | – | – | 1.385 ± 0.005 | 1.38 ± 0.005 | 1.375 ± 0.005 | – | – | –
[2], x1 = 0.7014 | – | – | – | 1.388 ± 0.005 | 1.384 ± 0.005 | 1.379 ± 0.005 | – | – | –
[2], x1 = 0.8008 | – | – | – | 1.391 ± 0.005 | 1.387 ± 0.005 | 1.382 ± 0.005 | – | – | –
[2], x1 = 0.8801 | – | – | – | 1.393 ± 0.005 | 1.389 ± 0.005 | 1.384 ± 0.005 | – | – | –
[2], x1 = 1 | – | – | – | 1.396 ± 0.005 | 1.391 ± 0.005 | 1.387 ± 0.005 | – | – | –
